Test results published in article PMC6700223 (Frontiers in Microbiology, 2019).
pIC50: −log10 of the molar value.

Legend:
[1] = assay type: physicochemical; details: pH 7.2
[2] = system: LASV GPC protein-mediated cell–cell fusion (293T/LASV/EGFP cells and Huh-7 cells); details: pH 5; for pIC50: 12 h

| SMILES | α-helical ratio [1] | pIC50 [2] | Inhibition of cell–cell fusion at 20 μM [2] |
| --- | --- | --- | --- |
| CC[C@H](C)[C@H](NC(=O)[C@H](CC(=O)O)NC(=O)[C@H](CC(=O)O)NC(=O)[C@H](CO)NC(=O)[C@H](Cc1ccccc1)NC(=O)[C@H](Cc1c[nH]cn1)NC(=O)[C@@H](NC(=O)[C@H](CCC(=O)O)NC(=O)[C@H](CC(N)=O)NC(=O)[C@H](CC(C)C)NC(=O)[C@H](Cc1ccc(O)cc1)NC(=O)[C@H](CO)NC(=O)CNC(=O)[C@H](CC(N)=O)NC(=O)[C@H](CO)NC(=O)[C@@H](NC(=O)[C@H](CC(C)C)NC(=O)[C@H](Cc1c[nH]c2ccccc12)NC(=O)[C@@H](N)CS)C(C)C)[C@@H](C)O)C(=O)N[C@@H](CCC(=O)O)C(=O)N[C@@H](CCC(N)=O)C(=O)N[C@@H](CCC(N)=O)C(=O)N[C@@H](C)C(=O)N[C@@H](CC(=O)O)C(=O)N[C@@H](CC(N)=O)C(=O)N[C@@H](CCSC)C(=O)N[C@H](C(=O)N[C@H](C(=O)N[C@@H](CCC(=O)O)C(=O)N[C@@H](CCSC)C(=O)N[C@@H](CC(C)C)C(=O)N[C@@H](CCC(N)=O)C(=O)N[C@@H](CCCCN)C(=O)N[C@@H](CCC(=O)O)C(=O)N[C@@H](Cc1ccc(O)cc1)C(=O)N[C@@H](CCSC)C(=O)N[C@@H](CCC(=O)O)C(=O)N[C@@H](CCCNC(=N)N)C(=O)N[C@@H](CCC(N)=O)C(=O)NCC(=O)N[C@@H](CCCCN)C(=O)N[C@H](C(=O)N1CCC[C@H]1C(=O)N[C@@H](CC(C)C)C(=O)NCC(=O)N[C@@H](CC(C)C)C(=O)N[C@H](C(=O)N[C@@H](CC(=O)O)C(=O)O)C(C)C)[C@@H](C)O)[C@@H](C)O)[C@@H](C)CC [HR2-1] | 28% | 6.43 | completely inhibit |
| CC[C@H](C)[C@H](NC(=O)[C@H](CC(=O)O)NC(=O)[C@H](CC(=O)O)NC(=O)[C@H](CO)NC(=O)[C@H](Cc1ccccc1)NC(=O)[C@H](Cc1c[nH]cn1)NC(=O)[C@@H](NC(=O)[C@H](CCC(=O)O)NC(=O)[C@H](CC(N)=O)NC(=O)[C@H](CC(C)C)NC(=O)[C@H](Cc1ccc(O)cc1)NC(=O)[C@@H](N)CO)[C@@H](C)O)C(=O)N[C@@H](CCC(=O)O)C(=O)N[C@@H](CCC(N)=O)C(=O)N[C@@H](CCC(N)=O)C(=O)N[C@@H](C)C(=O)N[C@@H](CC(=O)O)C(=O)N[C@@H](CC(N)=O)C(=O)N[C@@H](CCSC)C(=O)N[C@H](C(=O)N[C@H](C(=O)N[C@@H](CCC(=O)O)C(=O)N[C@@H](CCSC)C(=O)N[C@@H](CC(C)C)C(=O)N[C@@H](CCC(N)=O)C(=O)N[C@@H](CCCCN)C(=O)N[C@@H](CCC(=O)O)C(=O)N[C@@H](Cc1ccc(O)cc1)C(=O)N[C@@H](CCSC)C(=O)N[C@@H](CCC(=O)O)C(=O)N[C@@H](CCCNC(=N)N)C(=O)N[C@@H](CCC(N)=O)C(=O)NCC(=O)N[C@@H](CCCCN)C(=O)N[C@H](C(=O)N1CCC[C@H]1C(=O)N[C@@H](CC(C)C)C(=O)O)[C@@H](C)O)[C@@H](C)O)[C@@H](C)CC [HR2-2] |  | 4.58 | 30–40% |
